# Results as given in patent publication US7422733B2, “Linkable sialyl Lewis X analogs” (Bracco International B.V., priority 2000, dated 2008).
# How the values were obtained:
# E-selectin [1] = target: T1, E-selectin (Homo sapiens, UniProt P16581); experiment: binding of radiolabeled analog 3b to human aortic endothelial cells in vitro (E-selectin binding assay); design: endogenous in cells; host or cells: human aortic endothelial cells, stimulated with TNF-alpha or unstimulated
# T1 sequence (P16581 22-610): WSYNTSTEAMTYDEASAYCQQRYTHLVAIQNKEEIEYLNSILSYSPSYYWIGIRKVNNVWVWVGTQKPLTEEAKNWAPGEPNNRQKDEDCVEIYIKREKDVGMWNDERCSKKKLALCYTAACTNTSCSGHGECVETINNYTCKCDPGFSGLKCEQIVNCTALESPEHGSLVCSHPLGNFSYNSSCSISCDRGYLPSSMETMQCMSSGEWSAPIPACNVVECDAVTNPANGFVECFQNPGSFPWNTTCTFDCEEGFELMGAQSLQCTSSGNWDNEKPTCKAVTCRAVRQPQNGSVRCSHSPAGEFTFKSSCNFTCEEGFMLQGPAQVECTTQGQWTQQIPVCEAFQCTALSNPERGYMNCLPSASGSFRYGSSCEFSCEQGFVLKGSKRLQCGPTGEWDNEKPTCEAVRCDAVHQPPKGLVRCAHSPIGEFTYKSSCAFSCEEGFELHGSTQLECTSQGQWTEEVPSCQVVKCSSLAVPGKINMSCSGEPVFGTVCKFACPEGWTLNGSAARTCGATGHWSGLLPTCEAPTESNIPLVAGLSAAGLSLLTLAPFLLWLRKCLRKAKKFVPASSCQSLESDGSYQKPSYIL
# Method: We evaluated the ability of the radiolabeled acetamido-phenyl Sialyl Lewis^x analog 3b to bind to human aortic endothelial cells in vitro. […] S. A. DeFrees et al., J. Am. Chem. Soc., 117:66-79 (1995). […] The binding sites were specific to native Sialyl Lewis^x, since it was shown that cold unlabeled Sialyl Lewis^x (formula A) at a concentration of 10 mM displaced close to 50% of the bound counts at 0.2 mM concentration.
# E-selectin [2] = target: T1, E-selectin; conditions: in vitro, published value; cited from earlier work
"displacement of bound counts (E-selectin [1]; cold unlabeled competitor at 10 mM, bound 3b counts at 0.2 mM) [%]",behaviour in E-selectin binding assay compared to native Sialyl Lewis^x (E-selectin [1]),"concentrations at which the analog bound significantly (E-selectin [1]; activated human aortic endothelial cells, 14C-labeled analog)",increase in the extent of binding in TNF-α stimulated cells over unstimulated control cells (E-selectin [1]; cells stimulated with TNF-α vs unstimulated control cells),binding relative to published Kd of native Sialyl Lewis^x (E-selectin [1]; compared with published value of 1-2 mM),SMILES,Kd (E-selectin [2]) [µM]
~50,,,,,"CC(=O)NC1C(O)OC(CO)C(OC2OC(CO)C(O)C(OC3(C(=O)O)CC(O)C(NC(C)=O)C([C@H](O)[C@H](O)CO)O3)C2O)C1OC1OC(C)C(O)C(O)C1O (stereo partly drawn) [Sialyl Lewis^x, sialyl Lewis X]",1000 to 2000
,superior to native Sialyl Lewis^x,0.1-0.2 mM,two-fold increase,ten fold greater,CC(=O)N[C@H]1[C@H](Oc2ccc(N[14C](C)=O)cc2)O[C@H](CO)[C@@H](O[C@@H]2O[C@H](CO)[C@H](O)[C@H](O[C@]3(C(=O)O)C[C@H](O)[C@@H](NC(C)=O)[C@H]([C@H](O)[C@H](O)CO)O3)[C@H]2O)[C@@H]1O[C@@H]1O[C@@H](C)[C@@H](O)[C@@H](O)[C@@H]1O [compound 3b],
